Source: patent publication US20030191188A1, “Method for treating migraine symptoms with ibuprofen and salts thereof” (priority 1999, published 2003)

Experiments:
[1] = system: Subjects suffering from photophobia due to a migraine; assay: Treatment of photophobia due to a migraine, placebo-controlled subject study; type: in vivo; details: 200 or 400 milligrams of ibuprofen vs placebo; approximately 650 subjects; at time of two hours or longer
Excerpt: FIG. 1 depicts the percentage of subjects with reduced photophobia over time after treatment with ibuprofen. Subjects suffering from photophobia due to a migraine were either given a placebo or treated with 200 or 400 milligrams of ibuprofen. Approximately 650 subjects were in the study. Some subjects were given placebos, while others were given either 200 or 400 milligrams of ibuprofen.

[2] = system: Subjects suffering from phonophobia due to a migraine; assay: Treatment of phonophobia due to a migraine, placebo-controlled subject study; type: in vivo; details: 200 or 400 milligrams of ibuprofen in tablet form vs placebo; at time of two hours or longer
Excerpt: FIG. 2 depicts the percentage of subjects with reduced phonophobia over time over time after treatment with ibuprofen. Subjects suffering from phonophobia due to a migraine were either given a placebo or treated with 200 or 400 milligrams of ibuprofen in tablet form.

With CC(C)Cc1ccc(C(C)C(=O)O)cc1 (centres unmarked) [ibuprofen] the “relief of photophobia (percentage of subjects with reduced photophobia over time, FIG. 1)” value [1] was “effective in relieving photophobia” and the “relief of phonophobia (percentage of subjects with reduced phonophobia over time, FIG. 2); text prints photophobia” value [2] was “effective in relieving photophobia”.
